Test results as given in PubChem BioAssay (NCI).
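48-hour exposure; five concentrations; linearly interpolated endpoints. At the TGI there is no net growth.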

Columns and labels:
Experiment in all cases: inhibition of tumour cell growth, NCI panel, 48 h
ACHN renal = test system: ACHN renal
DMS 273 small cell lung = test system: DMS 273 small cell lung
HCC-2998 colon = test system: HCC-2998 colon
HCT-15 colon = test system: HCT-15 colon
KM12 colon = test system: KM12 colon
SNB-78 CNS = test system: SNB-78 CNS
A549 NSCLC = test system: A549 NSCLC
CCRF-CEM leukemia = test system: CCRF-CEM leukemia
MCF7 breast = test system: MCF7 breast
MDA-MB-231 breast = test system: MDA-MB-231 breast
MDA-MB-435 = test system: MDA-MB-435
MDA-N = test system: MDA-N
NCI/ADR-RES ovarian = test system: NCI/ADR-RES ovarian
PC-3 prostate = test system: PC-3 prostate
SK-MEL-5 melanoma = test system: SK-MEL-5 melanoma
T-47D breast = test system: T-47D breast
DMS 114 small cell lung = test system: DMS 114 small cell lung
NCI-H23 lung = test system: NCI-H23 lung
RXF 393 renal = test system: RXF 393 renal
SF-539 CNS = test system: SF-539 CNS

Measured: TGI

O=[N+]([O-])c1ccc(-c2ccc(-c3csc(Nc4ccccn4)n3)o2)cc1
> 100 µM: ACHN renal | DMS 273 small cell lung | HCC-2998 colon | HCT-15 colon | KM12 colon | SNB-78 CNS

CCC(C(=O)c1ccc(OC)c(OC)c1)N(C(=O)C(F)(F)F)C(C)c1ccccc1 (configuration not stated)
not listed: DMS 273 small cell lung | KM12 colon | SNB-78 CNS | DMS 114 small cell lung | NCI-H23 lung | RXF 393 renal | SF-539 CNS
> 100 µM: all other assays above

O=C1C(Cl)N(c2ccccc2[N+](=O)[O-])C1c1c[nH]c2ccccc12 (configuration not stated)
> 100 µM: A549 NSCLC | CCRF-CEM leukemia | DMS 114 small cell lung | KM12 colon | NCI-H23 lung | RXF 393 renal | SF-539 CNS | SK-MEL-5 melanoma
